57 compounds from patent US8865704B2, “Wnt pathway antagonists” (Siena Biotech S.p.A., priority 2009, dated 2014) can be followed below.

For this assay, the system named is Wnt/β-catenin pathway. The assay can be described thus: Wnt reporter assay (TCF-Luciferase, Firefly) in DBTRG-05MG cells. The format is cell-based. Conditions: Homo sapiens, 24 hours after compound addition. The procedure:
TCF-Luciferase: Three copies of a 4×TCF responsive elements were cloned into the pcDNA3.1/Zeo(+) vector (Invitrogen) after deletion of the constitutive CMV promoter and the insertion of the Firefly Luciferase from Promega (phFL-TK) to measure the activity of the Wnt/β-catenin pathway. The resulting plasmid was sequenced for quality control.
Cells were grown in 20 μg/ml Zeocin and 20 μg/ml Zeocin plus 30 μg/ml Hygromicin respectively. The cells were plated at a density of 6500 cells/well in poly-D-lysine pre-treated 96 well-plates.
IC50 determination: 36 hours after plating cells were incubated with 8-points (60 μM-40 μM-20 μM-10 μM-5 μM-1.66 μM-0.55 μM-0.185 μM) dilutions compound (0.6% DMSO (v/v)). Each compound was tested in triplicate in single plate. Luciferase detection was done with Dual-Luciferase Reporter Assay System (Promega). 24 hours after compound addition, media was removed and 30 μl of 1× lysis buffer was added to each well for 30 minutes. To each well 45 μl of Dual-Glo Luciferase reagent (Promega) were added and after 1 second delay Luciferase was detected for 1 second using Mithras LB940 instrument. After Firefly luciferase quantification 45 μl of Dual Stop & Glo reagent (Promega) were added to each well and Firefly Renilla was detected using the same parameters described before.
Data were expressed as % of control for Firefly and Renilla luciferase independently; values were calculated using XLFit version 4.2, with a four parameters sigmoid function (XLFit model 205).

As a reminder, the IC50 is the concentration at which inhibition is half-maximal. Compound `O=C(C1CC1)N1CCN(C(=O)[C@H]2CC[C@H](Cn3c(=O)[nH]c4ccc(Cl)cc4c3=O)CC2)CC1` [Example 63] gave a 50% inhibitory concentration (IC50) of 0.3 to 30 µM.

With `CC(C)Cn1c(=O)n(C[C@H]2CC[C@H](C(=O)N3CCN(C(=O)C4CC4)CC3)CC2)c(=O)c2ccccc21` [Example 64], the concentration for half-maximal inhibition (IC50) is 0.3 to 30 µM. As for `COc1ccc2[nH]c(=O)n(C[C@H]3CC[C@H](C(=O)N4CCN(C(=O)C5CCCC5)CC4)CC3)c(=O)c2c1` [Example 65], the figure is 0.3 to 30 µM. As for `CN1C(=O)N(C[C@H]2CC[C@H](C(=O)N3CCN(C(=O)C4CC4)CC3)CC2)Cc2ccccc21` [Example 67], the figure is 0.3 to 30 µM; as for `CN1C(=O)N(C[C@H]2CC[C@H](C(=O)N3CCN(C(=O)C4CCCC4)CC3)CC2)Cc2ccccc21` [Example 68], 0.3 to 30 µM.

For the compound `COCC(=O)N1CCN(C(=O)[C@H]2CC[C@H](CN3Cc4ccccc4N(C)C3=O)CC2)CC1` [Example 69], the IC50 fell in the range of 0.3 to 30 µM. As for `O=c1[nH]c2ccccc2c(=O)n1C[C@H]1CC[C@H](C(=O)Nc2cccc3cccnc23)CC1` [Example 70], the figure is 0.3 to 30 µM; as for `O=C(C1CCCC1)N1CCN(C(=O)[C@H]2CC[C@H](CN3Cc4ccccc4NC3=O)CC2)CC1` [Example 72], 0.3 to 30 µM; as for `O=C(C1CC1)N1CCN(C(=O)[C@H]2CC[C@H](Cn3c(=O)c4ccccc4n(CC4CC4)c3=O)CC2)CC1` [Example 73], 0.3 to 30 µM. The value for `O=C(C1CC1)N1CCN(C(=O)[C@H]2CC[C@H](Cn3c(=O)[nH]c4ccccc43)CC2)CC1` [Example 74] was 0.3 to 30 µM; that for `COc1ccc2c(c1)c(=O)n(C[C@H]1CC[C@H](C(=O)N3CCN(C(=O)C4CCCC4)CC3)CC1)c(=O)n2C` [Example 76] was 0.3 to 30 µM. The value for `Cn1c(=O)n(C[C@H]2CC[C@H](C(=O)N3CCN(C(=O)C4CCCO4)CC3)CC2)c(=O)c2ccccc21` (stereo partly drawn) [Example 81] was 0.3 to 30 µM; that for `O=C(C1CC1)N1CCN(C(=O)[C@H]2CC[C@H](Cn3c(=O)[nH]c4ccc(F)cc4c3=O)CC2)CC1` [Example 82] was 0.3 to 30 µM. `O=C(C1CC1)N1CCN(C(=O)[C@H]2CC[C@H](Cn3c(=O)c4ccccc4n(C(F)F)c3=O)CC2)CC1` [Example 83]: the 50% inhibitory concentration (IC50) fell in the range of 0.3 to 30 µM. As for `COc1ccc2c(c1)c(=O)n(C[C@H]1CC[C@H](C(=O)N3CCN(C(=O)C4CC4)CC3)CC1)c(=O)n2CC1CC1` [Example 84], the figure is 0.3 to 30 µM. The value for `O=C(C1CC1)N1CCN(C(=O)[C@H]2CC[C@H](CN3Cc4cc(Cl)ccc4NC3=O)CC2)CC1` [Example 85] was 0.3 to 30 µM; that for `COc1ccc2[nH]c(=O)n(C[C@H]3CC[C@H](C(=O)N4CCN(C)C(=O)C4)CC3)c(=O)c2c1` [Example 86] was 0.3 to 30 µM; that for `CCN1CCN(C(=O)[C@H]2CC[C@H](Cn3c(=O)[nH]c4ccc(OC)cc4c3=O)CC2)CC1=O` [Example 87] was 0.3 to 30 µM.

With `COCCN1CCN(C(=O)[C@H]2CC[C@H](Cn3c(=O)[nH]c4ccc(OC)cc4c3=O)CC2)CC1=O` [Example 88], the concentration for half-maximal inhibition (IC50) lay in the range of 0.3 to 30 µM. As for `COc1ccc2[nH]c(=O)n(C[C@H]3CC[C@H](C(=O)N4CCOCC4)CC3)c(=O)c2c1` [Example 89], the figure is 0.3 to 30 µM. `COc1ccc2[nH]c(=O)n(C[C@H]3CC[C@H](C(=O)N4CCCOCC4)CC3)c(=O)c2c1` [Example 90] registered an IC50 of 0.3 to 30 µM. With `COc1ccc2[nH]c(=O)n(C[C@H]3CC[C@H](C(=O)N4CCN(c5cnccn5)CC4)CC3)c(=O)c2c1` [Example 91], the 50% inhibitory concentration (IC50) is 0.3 to 30 µM. The value for `CCN1CCN(C(=O)[C@H]2CC[C@H](Cn3c(=O)c4cc(OC)ccc4n(C)c3=O)CC2)CC1=O` [Example 93] was 0.3 to 30 µM. Compound `COCCN1CCN(C(=O)[C@H]2CC[C@H](Cn3c(=O)c4cc(OC)ccc4n(C)c3=O)CC2)CC1=O` [Example 94] displayed an IC50 of 0.3 to 30 µM. As for `Cc1ccc2[nH]c(=O)n(C[C@H]3CC[C@H](C(=O)N4CCN(C(=O)C5CC5)CC4)CC3)c2c1` [Example 95], the figure is 0.3 to 30 µM; as for `COc1ccc2[nH]c(=O)n(C[C@H]3CC[C@H](C(=O)N4CCN(C(=O)C(C)(C)F)CC4)CC3)c(=O)c2c1` [Example 96], 0.3 to 30 µM; as for `COc1ccc2[nH]c(=O)n(C[C@H]3CC[C@H](C(=O)N4CCN(C(=O)C5CC5(F)F)CC4)CC3)c(=O)c2c1` (stereo partly drawn) [Example 97], 0.3 to 30 µM. `COc1ccc2[nH]c(=O)n(C[C@H]3CC[C@H](C(=O)N4CCN(c5ncccn5)CC4)CC3)c(=O)c2c1` [Example 98] returned a concentration for half-maximal inhibition (IC50) of 0.3 to 30 µM. The value for `CCCC(C)C(=O)N1CCN(C(=O)[C@H]2CC[C@H](Cn3c(=O)[nH]c4ccc(OC)cc4c3=O)CC2)CC1` (stereo partly drawn) [Example 100] was 0.3 to 30 µM; that for `CCC(C)C(=O)N1CCN(C(=O)[C@H]2CC[C@H](Cn3c(=O)[nH]c4ccc(OC)cc4c3=O)CC2)CC1` (stereo partly drawn) [Example 101] was 0.3 to 30 µM; that for `COc1ccc2[nH]c(=O)n(C[C@H]3CC[C@H](C(=O)N4CCN(C(=O)c5ccno5)CC4)CC3)c(=O)c2c1` [Example 102] was 0.3 to 30 µM. As for `COc1ccc2[nH]c(=O)n(C[C@H]3CC[C@H](C(=O)N4CCN(C(=O)OC(C)C)CC4)CC3)c(=O)c2c1` [Example 103], the figure is 0.3 to 30 µM. On to `CCC(C)OC(=O)N1CCN(C(=O)[C@H]2CC[C@H](Cn3c(=O)[nH]c4ccc(OC)cc4c3=O)CC2)CC1` (stereo partly drawn) [Example 104], for which the IC50 fell in the range of 0.3 to 30 µM. As for `COc1ccc2[nH]c(=O)n(C[C@H]3CC[C@H](C(=O)N4CCN(CC5CC5)C(=O)C4)CC3)c(=O)c2c1` [Example 105], the figure is 0.3 to 30 µM; as for `COc1ccc2[nH]c(=O)n(C[C@H]3CC[C@H](C(=O)N4CCN(C(=O)C5CCC5)CC4)CC3)c(=O)c2c1` [Example 106], 0.3 to 30 µM.

Consider `CC(C)(F)C(=O)N1CCN(C(=O)[C@H]2CC[C@H](Cn3c(=O)[nH]c4ccccc4c3=O)CC2)CC1` [Example 107], for which the half-inhibitory concentration (IC50) lay in the range of 0.3 to 30 µM. The value for `O=C(C1CC1(F)F)N1CCN(C(=O)[C@H]2CC[C@H](Cn3c(=O)[nH]c4ccccc4c3=O)CC2)CC1` (stereo partly drawn) [Example 108] was 0.3 to 30 µM. The value for `COc1ccc2[nH]c(=O)n(C[C@H]3CC[C@H](C(=O)N4CCN(C(=O)[C@@H]5CCCO5)CC4)CC3)c(=O)c2c1` [Example 110] was 0.3 to 30 µM.

`O=C(C1CC1)N1CCN(C(=O)[C@H]2CC[C@H](Cn3c(=O)[nH]c4cc(Cl)ccc43)CC2)CC1` [Example 111] displayed an IC50 of 0.3 to 30 µM. The value for `O=C(C1CC1)N1CCN(C(=O)[C@H]2CC[C@H](Cn3c(=O)[nH]c4cc(C(F)(F)F)ccc43)CC2)CC1` [Example 112] was 0.3 to 30 µM; that for `COc1ccc2[nH]c(=O)n(C[C@H]3CC[C@H](C(=O)Nc4ccncc4)CC3)c(=O)c2c1` [Example 113] was 0.3 to 30 µM. Compound `COc1ccc2[nH]c(=O)n(C[C@H]3CC[C@H](C(=O)Nc4ccc5oc(C)nc5c4)CC3)c(=O)c2c1` [Example 114] returned an IC50 of 0.3 to 30 µM. In the case of `COc1ccc2[nH]c(=O)n(C[C@H]3CC[C@H](C(=O)N4CCN(C(=O)c5cncn5C)CC4)CC3)c(=O)c2c1` [Example 115], the IC50 was 0.3 to 30 µM. As for `COc1ccc2[nH]c(=O)n(C[C@H]3CC[C@H](C(=O)N4CCN(C(=O)c5ccncn5)CC4)CC3)c(=O)c2c1` [Example 117], the figure is 0.3 to 30 µM; as for `COc1ccccc1NC(=O)[C@H]1CC[C@H](CN2CCc3ccccc3NC2=O)CC1` [Example 118], 0.3 to 30 µM; as for `COc1ccccc1NC(=O)[C@H]1CC[C@H](CN2C(=O)Cc3ccccc3N(C)C2=O)CC1` [Example 119], 0.3 to 30 µM. The compound `COc1ccccc1NC(=O)[C@H]1CC[C@H](CN2C(=O)Cc3ccccc3NC2=O)CC1` [Example 120] had an IC50 of 0.3 to 30 µM. For `COc1ccc2c(c1)c(=O)n(C[C@H]1CC[C@H](C(=O)N3CCN(c4nccs4)CC3)CC1)c(=O)n2C` [Example 121], the IC50 is 0.3 to 30 µM.

`CCC(C)C(=O)N1CCN(C(=O)[C@H]2CC[C@H](Cn3c(=O)c4cc(OC)ccc4n(C)c3=O)CC2)CC1` (stereo partly drawn) [Example 123] displayed an IC50 of 0.3 to 30 µM. As for `CCCC(C)C(=O)N1CCN(C(=O)[C@H]2CC[C@H](Cn3c(=O)c4cc(OC)ccc4n(C)c3=O)CC2)CC1` (stereo partly drawn) [Example 124], the figure is 0.3 to 30 µM; as for `COc1ccc2c(c1)c(=O)n(C[C@H]1CC[C@H](C(=O)N3CCN(C(=O)OCC(C)C)CC3)CC1)c(=O)n2C` [Example 125], 0.3 to 30 µM.

On to `COc1ccc2[nH]c(=O)n(C[C@H]3CC[C@H](C(=O)N4CCN(C(=O)C5CC5)C[C@H]4C)CC3)c(=O)c2c1` [Example 126], for which the concentration for half-maximal inhibition (IC50) lay in the range of 0.3 to 30 µM.

Regarding `COCC(=O)N1CCN(C(=O)[C@H]2CC[C@H](Cn3c(=O)[nH]c4ccc(OC)cc4c3=O)CC2)[C@H](C)C1` [Example 127], the IC50 lay within 0.3 to 30 µM. The value for `COc1ccc2c(c1)c(=O)n(C[C@H]1CC[C@H](C(=O)N3CCN(C(=O)[C@@H]4CCCO4)CC3)CC1)c(=O)n2C` [Example 128] was 0.3 to 30 µM; that for `COc1ccc2c(c1)c(=O)n(C[C@H]1CC[C@H](C(=O)N3CCN(C(=O)C4CCC4)CC3)CC1)c(=O)n2C` [Example 129] was 0.3 to 30 µM; that for `COc1ccc2c(c1)c(=O)n(C[C@H]1CC[C@H](C(=O)N3CCN(C(=O)OC(C)C)CC3)CC1)c(=O)n2C` [Example 130] was 0.3 to 30 µM.

In turn, `COc1ccc2c(c1)c(=O)n(C[C@H]1CC[C@H](C(=O)N3CCN(C(=O)[C@H]4CCCO4)CC3)CC1)c(=O)n2C` [Example 131] had an IC50 of 0.3 to 30 µM.
